Data as given in patent US6342516B1, “Phenylazole compounds, process for producing the same and drugs for hyperlipemia” (Nippon Soda Co., Ltd., priority 1998, dated 2002).

Assays:
[1] = system: cholesterol-fed hamsters; experiment: Effect on serum lipids of cholesterol-fed hamsters (serum total cholesterol and triglyceride reduction rate); assay type: in vivo; conditions: cholesterol-fed Syrian hamsters, oral once a day for 5 days
Procedure: Pharmacological Test Example 1: Effect on serum lipids of cholesterol-fed hamsters
Syrian hamsters (Std:Syrian, Male, 4 weeks old) were freely fed with chow containing 1% cholesterol and 10% coconut oil for 3 weeks ad libitum.
At the last week of feeding, each of the test compounds was dissolved or suspended in either 0.1% hydrochloric acid solution or 1% polyethylene-hydrogenated castor oil (NIKKOL HCO-60) solution and was orally administrated to hamsters once a day for 5 days. For the hamsters of the control group, only the solvent was orally administered. Then, blood was collected from the abdominal vein under the condition of anesthesia with pentobarbital at 2-4 hours after the last administration, and the serum in the blood was separated. The serum total cholesterol value and the serum triglyceride value were determined by using autobiochemical analyzer with analizing kits, and reduction rate of the serum lipids was determined according to the equation indicated below based on the analyzed values for respective hamster groups.
Serum lipids reduction rate (%)=(Amount of serum lipids of the control group−Amount of serum lipids of the group administrated with the test compound)/Amount of serum lipids of the control group×100

[2] = system: Lipid peroxidation activity in rat liver microsome; experiment: Effect on lipid peroxidation in vitro (rat liver microsome, thiobarbituric acid method); assay type: biochemical; conditions: rat liver microsomes, 500 μM cystein and 5 μM ferrous(II) sulfate, malonaldehyde by thiobarbituric acid method; read-out: Lipid Antiperoxidation Activity 50% Inhibition Concentration (IC50)
Procedure: Pharmacological Test Example 2: Effect on lipid peroxidation in vitro
Lipid peroxidation activity in rat liver microsome was determined according to the method of Malvy et al. (Malvy et al., Biochemical and Biophysical Research Communications, 95, 734-737 (1980)). More particularly, 500 μM cystein and 5 μM ferrous(II) sulfate were incubated with rat liver microsomes, and the amount of malonaldehyde produced due to the decomposition of lipid peroxide was determined according to thiobarbituric acid method. The concentration of the compounds required to inhibit the formation of lipid peroxide by 50% (IC50) was calculated.

[3] = system: carbon tetrachloride induced liver damage model in rats; experiment: Carbon tetrachloride induced liver damage model in rats (lipid peroxide in liver; serum GOT, GPT); assay type: in vivo, rats (SD-strain, male); conditions: CCl4: 1 ml/kg, dose 10 mg/kg oral 3 times
Procedure: Pharmacological Test Example 3: Effect on lipid peroxidation […] Effect of the compounds of the present invention on the produced lipid peroxide in liver was examined on carbon tetrachloride induced liver damage model in rats. Briefly, providing 5 SD-strain male rats (6 weeks old) for each group, carbon tetrachloride at the rate of 1 ml/kg or 2 ml/kg (0.5 ml/kg or 1 ml/kg based on carbon tetrachloride) was orally administered to the rats together with the equivalent dose of olive oil. At 24 hours after the administration of carbon tetrachloride, their livers were excised, and the produced amount of lipid peroxide in liver was determined by thiobarbituric acid method according to Uchiyama's method (Uchiyama, M., et al., Analytical biochemistry, 86, 271-278 (1978)). In parallel, as the indicator for liver disorder due to carbon tetrachloride, serum enzyme activity (GOT, GPT) was measured. Then each of the test compounds, which was either dissolved or suspended in either 0.1% hydrochloric acid solution or olive oil, was orally administered to the rats 3 times at 1 before and, 3 and 6 hours after the administration of carbon tetrachloride. For the rats of normal group and control groups, the solvent was orally administered. Based on the measured values for each groups, the inhibitory rate of producing peroxidized lipids and the inhibitory rate of causing liver disorder were calculated according to the following equation. Inhibitory rate of producing lipid peroxide (%)=[1−(Produced amount of lipid peroxide in the test compound group−Produced amount of lipid peroxide in the normal rat group)/(Produced amount of lipid peroxide in the control group−Produced amount of lipid peroxide in the normal rat group)]×100 Liver disorder preventing rate (%)=[1−(GOT amount of GPT amount in the test compound group−GOT amount or GPT amount in the normal rat group)/(GOT amount or GPT amount in the control group−GOT amount or GPT amount in the normal rat group)]×100 The results are presented in Table 8.

Row | Structure (SMILES) | Serum lipids reduction rate comparing to Control group (%), Means of 3 animals: Total cholesterol ([1]; dose 25 mg/kg) [%] | Serum lipids reduction rate comparing to Control group (%), Means of 3 animals: Triglyceride ([1]; dose 25 mg/kg) [%] | IC50 [2] [nM] | further results
1 | Cc1c(C)c2c(c(C)c1O)CCC(C)(CC(=O)Nc1ccc(-n3ccnc3)cc1)O2 (racemic) [3-4] | 37 | 80 | 2300 | –
2 | Cc1c(C)c2c(c(C)c1O)CCC(C)(CCC(=O)Nc1ccc(-n3ccnc3)cc1)O2 (racemic) [3-5] | – | – | 1300 | –
3 | Cc1c(C)c2c(c(C)c1O)CCC(C)(C(=O)NCCCCCC(=O)Nc1ccc(-n3ccnc3)cc1)O2 (racemic) [3-8] | – | – | 3800 | –
4 | Cc1c(C)c2c(c(C)c1O)CC(C)(C(=O)Nc1ccc(-n3ccnc3)cc1)O2 (racemic) [3-9] | 38 | 49 | 1900 | –
5 | Cc1c(C)c2c(c(C)c1O)CC(C)(CCC(=O)Nc1ccc(-n3ccnc3)cc1)O2 (racemic) [3-10] | 35 | 51 | 2100 | –
6 | Cc1c(C)c2c(c(C)c1O)CC(C)(CCCCC(=O)Nc1ccc(-n3ccnc3)cc1)O2 (racemic) [3-12] | – | – | 2500 | –
7 | CC(=O)Oc1c(C)c(C)c2c(c1C)CC(C)(C(=O)Nc1ccc(-n3ccnc3)cc1)O2 (racemic) [3-13] | – | – | 2800 | –
8 | Cc1c(C)c2c(c(C)c1OC(=O)c1ccccc1)CCC(C)(C(=O)Nc1ccc(-n3ccnc3)cc1)O2 (racemic) [3-14] | 22 | 31 | 2600 | –
9 | Cc1c(C)c2c(c(C)c1O)CC(C)(C=CC(=O)Nc1ccc(-n3ccnc3)cc1)O2 (racemic) [3-15] | 26 | 30 | 920 | –
10 | Cc1c(C)c2c(c(C)c1O)CC(C)(C=CC=CC(=O)Nc1ccc(-n3ccnc3)cc1)O2 (racemic) [3-16] | – | – | 2100 | –
11 | CC(=O)Oc1c(C)c(C)c2c(c1C)CC(C)(C(=O)Nc1ccc(-c3ccn[nH]3)cc1)O2 (racemic) [3-19] | – | – | 420 | –
12 | Cc1c(C)c2c(c(C)c1O)CCC(C)(C(=O)Nc1ccc(-c3ccn[nH]3)cc1)O2 (racemic) [Compound No. 3-25, (±)-(6-hydroxy-2,5,7,8-tetramethylchroman-2-yl)-N-[4-(pyrrazol-5-yl)phenyl]carboxamide] | – | – | 490 | –
13 | Cc1cc(=O)oc2cc(OCC(=O)Nc3ccc(-n4ccnc4)cc3)ccc12 [4-88] | 39 | 53 | – | –
14 | O=C(CCc1cccnc1)Nc1ccc(-n2ccnc2)cc1 [4-90] | 22 | 36 | – | –
15 | O=C(Cn1c(=O)ccc2ccccc21)Nc1ccc(-c2ccn[nH]2)cc1 [4-91] | 37 | 48 | – | –
16 | O=C(CN1C(=O)COc2ccccc21)Nc1ccc(-c2cn[nH]c2)cc1 [4-92] | 29 | 34 | – | –
17 | O=C(COc1ccc2ccccc2n1)Nc1ccc(-n2ccnc2)cc1 [4-96] | 36 | 50 | – | –
18 | Cn1c(CCC(=O)Nc2ccc(-n3ccnc3)cc2)nc2ccccc21 [4-97] | – | – | – | Serum lipids reduction rate comparing to Control group (%), Means of 3 animals: Total cholesterol ([1]; dose 12.5 mg/kg): 26%; Serum lipids reduction rate comparing to Control group (%), Means of 3 animals: Triglyceride ([1]; dose 12.5 mg/kg): 33%
19 | COc1cc2cc(CCC(=O)Nc3ccc(-n4ccnc4)cc3)n(S(C)(=O)=O)c2cc1OC [4-100] | 26 | 33 | – | –
20 | O=C(COc1ncccn1)Nc1ccc(-n2ccnc2)cc1 [4-101] | 41 | 38 | – | –
21 | O=C(COc1nccc(C(F)(F)F)n1)Nc1ccc(-n2ccnc2)cc1 [4-103] | 35 | 46 | – | –
22 | O=C(CCOC1CCOC1)Nc1ccc(-n2ccnc2)cc1 (centres unmarked) [4-104] | 25 | 38 | – | –
23 | Cc1cc(C(C)(C)C)c(O)c(C(C)(C)C)c1 [BHT, 2,6-t-Dibutyl-p-cresol, reference compound] | – | – | 2200 | –
24 | CC1=C(C)C(=O)C(C(CCCc2ccccc2)CCC(=O)Nc2ccc(-n3ccnc3)cc2)=C(C)C1=O (centres unmarked) [Compound No. 3-28, N-[4-(imidazol-1-yl)phenyl]-7-phenyl-4-(3,5,6-trimethyl-1,4-benzoquinon-2-yl)heptanamide] | 29 | 23 | 3300 | Antioxidation Activity of Lipid: Mass of lipid peroxide ([3]; liver at 24 hours): 5.781 A535nm/g lever; Antioxidation Activity of Lipid: Prevention Rate ([3]; liver at 24 hours): 61%; Preventive Activity on Liver Disorder: GOT ([3]; serum): 269 IU/L; Preventive Activity on Liver Disorder: GOT Prevention Rate ([3]; serum): 76%; Preventive Activity on Liver Disorder: GPT ([3]; serum): 82 IU/L; Preventive Activity on Liver Disorder: GPT Prevention Rate ([3]; serum): 82%
25 | O=C(Nc1ccc(-n2ccnc2)cc1)c1cc2cc(Cl)ccc2[nH]1 [Compound No. 4-8] | 37 | 73 | – | –
26 | O=C(COc1cccnc1)Nc1ccc(-n2ccnc2)cc1 [Compound No. 4-85] | 39 | 44 | – | –
